Test results reported in paper PMC11766795 (Marine Drugs, 2025).
pKd: −log10 of the molar value.

Legend:
[1] = tested on: vesicular stomatitis virus (VSV); assay type: cell-based
HIV strain, HXBc2 (HX) = assay type: cell-based, Human immunodeficiency virus
MARV (Angola, IRF0202) = assay: cells; assay type: cell-based, Marburg virus; settings: Homo sapiens, Huh-7, 24 h, read-out: IC50 (µM) Infectious Virus, MARV
pseudotyped virus EBOV = assay: microbe, parasite or virus in culture; assay type: cell-based, Zaire ebolavirus; settings: for IC50: Zaire ebolavirus, TZM-bl, read-out: IC50 (µM) Pseudovirus, EBOV
in vitro = settings: human
[2] = tested on: amphitropic murine leukemia virus (A-MLV); assay type: cell-based
[3] = tested on: Wild-type EBOV (Makona C07 strain, IRF0192); assay: microbe, parasite or virus in culture; assay type: cell-based, Ebola virus; settings: Zaire ebolavirus, Huh-7, 48 h, read-out: IC50 (µM) Infectious Virus, EBOV
pseudotyped MARV = assay: microbe, parasite or virus in culture; assay type: cell-based, Marburg marburgvirus; settings: for IC50: Orthomarburgvirus marburgense, TZM-bl, read-out: IC50 (µM) Pseudovirus, MARV
[4] = target: RBD of EBOV-GP (RBD-Fc fusion protein) (Zaire ebolavirus, UniProt Q05320); assay: biochemical; assay type: binding
Sequence of RBD of EBOV-GP (RBD-Fc fusion protein) (Q05320 54-201 limits assumed): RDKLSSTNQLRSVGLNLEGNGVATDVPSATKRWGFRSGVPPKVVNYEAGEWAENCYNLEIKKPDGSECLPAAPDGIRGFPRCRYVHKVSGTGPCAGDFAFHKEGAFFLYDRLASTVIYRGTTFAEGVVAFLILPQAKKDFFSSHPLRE

SMILES | Neutralization of pseudotyped VSV (specificity) [1] | Neutralization of pseudotyped HIV (specificity) (HIV strain, HXBc2 (HX)) | IC50 (MARV (Angola, IRF0202)) [µM] | Activity in screening against pseudotyped EBOV (pseudotyped virus EBOV) | Neutralization of pseudotyped EBOV in specificity test (pseudotyped virus EBOV) | SI, Selectivity index (CC50/IC50), EBOV (pseudotyped virus EBOV) | IC50 (pseudotyped virus EBOV) [µM] | CC50 (in vitro) [µM] | Neutralization of pseudotyped A-MLV (specificity) [2] | IC50 [3] [µM] | Activity in screening against pseudotyped MARV (pseudotyped MARV) | Neutralization of pseudotyped MARV in specificity test (pseudotyped MARV) | SI, Selectivity index (CC50/IC50), MARV (pseudotyped MARV) | IC50 (pseudotyped MARV) [µM] | pKd [4]
CC(C)=CCC[C@]1(C)[C@@H](O)CC[C@@]2(C)[C@H]1CC[C@H]1Cc3c([nH]c4ccccc34)[C@@]12C [Compound W26, Emindole SB] | neither of them did so | neither of them did so | 95.7 | modest activities | neutralizing | 7 | ~3.17 | 20.9 | neither of them did so | 49.8 | modest activities | neutralizing | 10 | 2.15 | –
CC(=O)N[C@@H](Cc1c[nH]c2ccccc12)C(=O)O [N-Ac-L-tryptophan, N-Acetyl-L-Tryptophan, reference compound] | – | – | – | some activity | – | – | > 48 | > 60 | – | – | – | – | – | – | –
CC(=O)N[C@H](Cc1c[nH]c2ccccc12)C(=O)O [N-Ac-D-tryptophan, N-Acetyl-D-Tryptophan, reference compound] | – | – | – | some activity | – | – | > 48 | > 60 | – | – | – | – | – | – | –
C[C@@]12NC(=O)[C@H](Cc3c1[nH]c1ccccc31)n1c2nc2ccccc2c1=O [Compound W12, Fumiquinazoline J] | neither of them did so | neither of them did so | 64.5 | modest activities | neutralizing | 15 | ~1.68 | 24.8 | neither of them did so | 15.3 | modest activities | neutralizing | 26 | 0.96 | 4.04
CC(=O)OCC(=O)OC1CCC2(C)C(CCC3c4c([nH]c5ccccc45)CC32C)C1(C)CCC=C(C)C (centres unmarked) [Compound W27, Fusaindoterpene B] | – | – | 83.3 | modest activities | – | 7 | ~2.82 | 16.3 | – | 33 | modest activities | – | 6 | 2.63 | –
